Measured values reported in patent publication US5488060A, “Substituted thiadiazoles, compositions containing them and their use as antimicrobial and marine antifouling agents” (The Dow Chemical Company, priority 1994, dated 1996).
Like-named read-outs stand apart in the source and are kept apart here.

What was measured:
Assay type in all cases: cell-based
Fusarium oxysporum (Fo) = test: Minimum inhibitory concentration (MIC) in malt yeast agar, Fusarium oxysporum
Procedure, shortened: (§1)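 Growth is scored at 30 °C after 72 h for fungi and 48 h for yeast on malt yeast agar (pH 5.5) containing compound at final levels from 500 down to zero ppm. Organisms are grown 7 days at 30 °C, suspended in saline with octylphenoxy polyethoxy ethanol, and diluted 1:9 before replicator inoculation.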

[1] = system: Saccharomyces cerevisiae (Sc); test: Minimum inhibitory concentration (MIC) in malt yeast agar, Saccharomyces cerevisiae; conditions: pH 5.5, malt yeast agar, 30° C., 48 hours for yeast, read-out: Minimum Inhibitory Concentration, SC
Procedure, shortened: as §1

Escherichia coli (Ec) = test: Minimum inhibitory concentration (MIC) in nutrient agar, Escherichia coli
Procedure, shortened: (§2)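 Test compound, as a 1% acetone–water solution, was mixed into molten nutrient agar (pH 6.8 or pH 8.2) at 48° C to final levels of 500 down to 1.0 ppm. Plates were dried 24 h, spot-inoculated with 10^8 CFU/mL suspensions of 24-h cultures, and incubated 48 h at 30° C. MIC was the lowest level preventing growth.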

[2] = system: Aureobasidium pullulan (Ap); test: Minimum inhibitory concentration (MIC) in malt yeast agar, Aureobasidium pullulan; conditions: pH 5.5; malt yeast agar, 30° C.; read-out: Minimum Inhibitory Concentration, Ap
Procedure, shortened: as §1

[3] = system: Staphylococcus aureus (Sa); test: Minimum inhibitory concentration (MIC) in nutrient agar, Staphylococcus aureus
Procedure, shortened: as §2

[4] = system: Penicillium chrysogenum (Pc); test: Minimum inhibitory concentration (MIC) in malt yeast agar, Penicillium chrysogenum
Procedure, shortened: as §1

[5] = system: Pseudomonas aeruginosa (Pa); test: Minimum inhibitory concentration (MIC) in nutrient agar, Pseudomonas aeruginosa; conditions: 30° C., 48 hours, read-out: Minimum Inhibitory Concentration, Pa
Procedure, shortened: as §2

[6] = system: Klebsiella pneumoniae (Kp); test: Minimum inhibitory concentration (MIC) in nutrient agar, Klebsiella pneumoniae
Procedure, shortened: as §2

Candida albicans (Ca) = test: Minimum inhibitory concentration (MIC) in malt yeast agar, Candida albicans
Procedure, shortened: as §1

Proteus vulgaris (Pv) = test: Minimum inhibitory concentration (MIC) in nutrient agar, Proteus vulgaris; conditions: 48 h
Procedure, shortened: as §2

[7] = system: Pseudomonas aeruginosa (PRD-10); test: Minimum inhibitory concentration (MIC) in nutrient agar, Pseudomonas aeruginosa PRD-10
Procedure, shortened: as §2

Bacillus subtilis (Bs) = test: Minimum inhibitory concentration (MIC) in nutrient agar, Bacillus subtilis
Procedure, shortened: as §2

Trichoderma viride (Tv) = test: Minimum inhibitory concentration (MIC) in malt yeast agar, Trichoderma viride
Procedure, shortened: as §1

[8] = system: Salmonella choleraesuis (Se); test: Minimum inhibitory concentration (MIC) in nutrient agar, Salmonella choleraesuis; conditions: Salmonella enterica, 48 h
Procedure, shortened: as §2

[9] = system: Enterobacter aerogenes (Ea); test: Minimum inhibitory concentration (MIC) in nutrient agar, Enterobacter aerogenes; conditions: Klebsiella aerogenes, 48 h
Procedure, shortened: as §2

Aspergillus niger (An) = test: Minimum inhibitory concentration (MIC) in malt yeast agar, Aspergillus niger
Procedure, shortened: as §1

[10] = pH 5.5, malt yeast agar, 30° C., 72 hours for fungi, read-out: Minimum Inhibitory Concentration, Fo
[11] = 48 h, pH 6.8, read-out: Minimum Inhibitory Concentration, Ec
[12] = pH 8.2, nutrient agar, 30° C., 48 hours, read-out: Minimum Inhibitory Concentration, Ec
[13] = 48 h, pH 8.2, read-out: Minimum Inhibitory Concentration, Sa
[14] = pH 6.8, nutrient agar, 30° C., 48 hours, read-out: Minimum Inhibitory Concentration, Sa
[15] = pH 5.5, malt yeast agar, 30° C., 72 hours for fungi, read-out: Minimum Inhibitory Concentration, PC
[16] = 48 h, pH 8.2, read-out: Minimum Inhibitory Concentration, Kp
[17] = pH 6.8, nutrient agar, 30° C., 48 hours, read-out: Minimum Inhibitory Concentration, Kp
[18] = pH 5.5, malt yeast agar, 30° C., 48 hours for yeast, read-out: Minimum Inhibitory Concentration, Ca
[19] = pH 6.8, read-out: Minimum Inhibitory Concentration, Pv
[20] = pH 8.2, read-out: Minimum Inhibitory Concentration, Pv
[21] = 48 h, pH 8.2, read-out: Minimum Inhibitory Concentration, PRD
[22] = pH 6.8, nutrient agar, 30° C., 48 hours, read-out: Minimum Inhibitory Concentration, Bs
[23] = pH 5.5, malt yeast agar, 30° C., 72 hours for fungi, read-out: Minimum Inhibitory Concentration, Tv
[24] = pH 6.8, read-out: Minimum Inhibitory Concentration, SC
[25] = pH 8.2, read-out: Minimum Inhibitory Concentration, SC
[26] = pH 6.8, read-out: Minimum Inhibitory Concentration, Ea
[27] = pH 8.2, read-out: Minimum Inhibitory Concentration, Ea
[28] = pH 5.5, malt yeast agar, 30° C., 72 hours for fungi, read-out: Minimum Inhibitory Concentration, An
[29] = 72 h, pH 5.5, read-out: Minimum Inhibitory Concentration, Fo
[30] = 48 h, pH 8.2, read-out: Minimum Inhibitory Concentration, Ec
[31] = 48 h, pH 5.5, read-out: Minimum Inhibitory Concentration, Ca
[32] = 48 h, pH 6.8, read-out: Minimum Inhibitory Concentration, PRD
[33] = 48 h, pH 8.2, read-out: Minimum Inhibitory Concentration, Bs
[34] = 72 h, pH 5.5, read-out: Minimum Inhibitory Concentration, Tv
[35] = 72 h, pH 5.5, read-out: Minimum Inhibitory Concentration, An
[36] = 48 h, pH 6.8, read-out: Minimum Inhibitory Concentration, Bs

Measured: MIC

N#CSCSc1nsnc1-c1ccc(F)cc1 [Example XXI, 4-(4-Fluorophenyl)-3-thiocyanatomethylthio-1,2,5-thiadiazole]
> 500 mg/L: [3]; [13] | [5]; pH 8.2, nutrient agar | [6]; [16] | Proteus vulgaris (Pv); [20] | [7]; [21] | [8]; [25] | [9]; [27]
500 mg/L: Escherichia coli (Ec); [11] | [3]; [14] | [6]; [17] | Proteus vulgaris (Pv); [19] | [8]; [24] | [9]; [26]
100 mg/L: Bacillus subtilis (Bs); pH 8.2, nutrient agar, 30° C., 48 hours, read-out: Minimum Inhibitory Concentration, Bs
9 mg/L: Fusarium oxysporum (Fo); [10] | [1] | [2] | [4]; [15] | Candida albicans (Ca); [18] | Bacillus subtilis (Bs); [22] | Aspergillus niger (An); [28]
250 mg/L: Escherichia coli (Ec); [12] | [7]; pH 6.8, nutrient agar, 30° C., 48 hours, read-out: Minimum Inhibitory Concentration, PRD
25 mg/L: Trichoderma viride (Tv); [23]

COc1cccc(-c2nsnc2SCSC#N)c1 [Example XXII, 4-(3-Methoxyphenyl)-3-thiocyanatomethylthio-1,2,5-thiadiazole]
25 mg/L: [4]; [15] | Bacillus subtilis (Bs); [33]
500 mg/L: Escherichia coli (Ec); [11] | Escherichia coli (Ec); [30] | [3]; [13] | [3]; [14] | [5]; pH 6.8, nutrient agar | [6]; [17] | Proteus vulgaris (Pv); [19] | [7]; [32] | [8]; [24] | [9]; [26]
> 500 mg/L: [5]; pH 8.2, nutrient agar | [6]; [16] | Proteus vulgaris (Pv); [20] | [7]; [21] | [8]; [25] | [9]; [27]
9 mg/L: [1] | [2] | Bacillus subtilis (Bs); [22]
50 mg/L: Fusarium oxysporum (Fo); [29] | Aspergillus niger (An); [35]
250 mg/L: Candida albicans (Ca); [31] | Trichoderma viride (Tv); [34]

COc1ccc(-c2nsnc2SCSC#N)cc1 [Example XXIII, 4-(4-Methoxyphenyl)-3-thiocyanatomethylthio-1,2,5-thiadiazole]
100 mg/L: Fusarium oxysporum (Fo); [29]
500 mg/L: Bacillus subtilis (Bs); [36] | [9]; [27]
9 mg/L: [1] | [2]
50 mg/L: [4]; 72 h, pH 5.5, read-out: Minimum Inhibitory Concentration, PC
250 mg/L: Candida albicans (Ca); [31] | Bacillus subtilis (Bs); [33] | Trichoderma viride (Tv); [34]
> 500 mg/L: Escherichia coli (Ec); [11] | Escherichia coli (Ec); [30] | [3]; [13] | [3]; [14] | [5]; pH 6.8, nutrient agar | [5]; pH 8.2, nutrient agar | [6]; [16] | [6]; [17] | Proteus vulgaris (Pv); [19] | Proteus vulgaris (Pv); [20] | [7]; [32] | [7]; [21] | [8]; [24] | [8]; [25] | [9]; [26]
25 mg/L: Aspergillus niger (An); [35]

CSc1ccc(-c2nsnc2SCSC#N)cc1 [Example XXIV, 4-(4-Methylthiophenyl)-3-thiocyanatomethylthio-1,2,5-thiadiazole]
> 500 mg/L: [3]; [13] | [5]; pH 8.2, nutrient agar | [6]; [16] | Proteus vulgaris (Pv); [20] | [7]; [21] | [8]; [25] | [9]; [27]
250 mg/L: Escherichia coli (Ec); [12]
500 mg/L: Fusarium oxysporum (Fo); [10] | [1] | Escherichia coli (Ec); [11] | [2] | [3]; [14] | [4]; [15] | [5]; pH 6.8, nutrient agar | [6]; [17] | Candida albicans (Ca); [18] | Proteus vulgaris (Pv); [19] | [7]; [32] | Bacillus subtilis (Bs); [36] | Bacillus subtilis (Bs); [33] | Trichoderma viride (Tv); [23] | [8]; [24] | [9]; [26] | Aspergillus niger (An); [28]
